Legend:
Type in all cases: cell-based
hVR1 [1] = molecular target: T1, hVR1 (Homo sapiens, UniProt Q8NER1); assay: Calcium uptake assay (FLIPR), inhibition of capsaicin-induced calcium influx
T1 construct: R710-07 (T-REx host cell line); host or cells: T-REx System cell line, called 'human keratinocyte cell line' and 'HEK 293 cells'
Method: (§1) Functional activity of compounds against the VR1 receptor was determined by measuring changes in intracellular calcium in HEK 293 cells expressing hVR1. Compounds were examined for their ability to inhibit agonist-induced calcium influx. Relative levels of [Ca^2+] were monitored in a 96-well format using a calcium-sensitive fluorescence dye and a FLIPR TETRA, Molecular Devices.
(§2) Cells that express high levels of VR1 were obtained by generation of a cell line from human keratinocytes with heterologous expression of VR1 under control of an inducible promoter. Specifically, cells expressing human VR1 under the control of the human cytomegalovirus immediate-early (CMV) promoter and two tetracycline operator 2 (TetO2) sites were made using the T-REx System (Invitrogen, Carlsbad, Calif., USA). Details and methods concerning this system are published (Hum. Gene Ther. 9, pp. 1939-1950, 1998; Annu. Rev. Microbiol. 48, pp. 345-369, 1994; Mol. Biol. 169, pp. 707-'721, 1983). Human VR1 was subcloned into the T-REx System pcDNA5/TO vector (Invitrogen Cat# V1033-20) which was transfected into the T-REx System human keratinocyte cell line (Invitrogen Cat# R710-07) from which a stable cell line was established which expresses VR1 after induction by exposure to tetracycline or doxycycline (Hum. Gene Ther. 9, pp. 1939-1950, 1998; instructions that come with purchase of products noted above). Cells were maintained in a CO2 incubator (5% CO2) at 37° C. in culture medium containing DMEM with phenol red (Mediatech Cat #: 15-017-CV) supplemented with 10% heat-inactivated Fetal Bovine Serum, 5% Penicillin-streptomycin (Mediatech Cat #: 30-002-CI), 5% Glutamax® (L-Alanyl-L-Glutamine, Mediatech Cat #: 25-015-CI), 200 μg/ml hygromycin (Mediatech #:30-240-CR), 0.5 μg/ml blasticidin (Invitrogen #46-1120)).
(§3) For assay preparation, cells expressing human VR1 as described above were plated in 96-well plates (Becton Dickinson [BD] poly-D-lysine coated 96-well plates, cat #356692) at 55,000 cells per well in culture media (described above) that also contained 1 ug/ml doxycycline. Plated cells were then placed in an incubator (5% CO2) and incubated for 20-26 hours at 37° C., until the cells had grown to near confluency. Media was then aspirated from cells and 50 uL of dye-containing buffer (from Molecular Devices FLIPR Calcium 4 Assay kit, cat# R8141) was added to each well. Cells were then left in the dark at room temperature for 1.5-2 hours. Cell plates were then placed in the FLIPR TETRA (Molecular Devices, CA, USA). Test compounds and agonists were added to wells using the liquid handling capability of the FLIPR TETRA. Calcium responses of the cells were monitored by fluorescence readout of dye signal. Test compounds in saline (130 mM NaCl, 17 g/L sucrose, 1.8 g/L glucose, 8.8 mM HEPES, 3 mM KCl, 0.60 mM MgCl, 1.0 mM CaCl2; adjust to pH 7.4 using NaOH; 0.03% BSA added on the day of the experiment), or vehicle control in saline, were pre-incubated at the desired final concentrations in the dark at room temperature for 2 or 30 minutes with cells already containing the above mentioned dye buffer (dye solution was diluted 1:1 in culture wells with saline containing 2× the final concentration of test compound). […] Another agonist was protons via a low pH solution (saline solution described above plus 10 mM citric acid buffered to pH 5.7 with HCl instead of buffering to a neutral pH with NaOH as done for normal saline). Compounds were tested at various concentration ranges, depending upon potency of compound. After the 2 minute or 30 minute compound pre-treatment, treatment solution was then added to cells by adding a volume of treatment solution equal to the pretreatment solution already on the cells.

hVR1 [2] = molecular target: T1, hVR1; assay: Calcium uptake assay (FLIPR), inhibition of low pH (proton)-induced calcium influx; conditions: agonist protons, low pH solution pH 5.7; cells expressing hVR1
Method: as §1, §2
as §3, with “compound). Compound IC50 experiments were run using an agonist concentration at or near the EC50 of the agonist.” for “compound).”, “cells. […]” for “cells.”

hVR1 [3] = molecular target: T1, hVR1; assay: Determination of pA2 values against capsaicin stimulation (Ca2+ imaging, Schild analysis)
Method: Changes in the fluorescence signal (λex=470-495 nm, λem=515-575 nm) are monitored throughout the experiment before agonist addition and for at least 2 min after agonist addition (enough time for the fluorescence response to reach and then decline from the absolute maximum, agonist-induced signal attained). For each well, final relative fluorescence units (RFUs) are calculated as the difference between the maximum fluorescence signal obtained in the experiment after agonist addition and the signal level seen at baseline before agonist, but after antagonist, addition (the absolute minimum level of fluorescence signal observed in the 10 seconds prior to agonist addition). […] Data are fit to an ideal curve utilizing the 4-parameter sigmoid curve-fit function in GraphPad Prism software (version 4, GraphPad Software, Inc., San Diego, Calif., USA) from which an EC50 value is obtained. […] For each antagonist, at least three concentrations are tested. Dose Ratio values are then used to make a standard Schild plot—log [antagonist concentration] plotted against log [DR−1], see Kenakin reference above for theoretical background and method. A linear regression curve-fit is then performed on these plotted points. […] If these conditions are not met, then the antagonist is rerun in a pA2 assay using different antagonist concentrations until the above conditions are met.

T1 sequence (Q8NER1 whole entry): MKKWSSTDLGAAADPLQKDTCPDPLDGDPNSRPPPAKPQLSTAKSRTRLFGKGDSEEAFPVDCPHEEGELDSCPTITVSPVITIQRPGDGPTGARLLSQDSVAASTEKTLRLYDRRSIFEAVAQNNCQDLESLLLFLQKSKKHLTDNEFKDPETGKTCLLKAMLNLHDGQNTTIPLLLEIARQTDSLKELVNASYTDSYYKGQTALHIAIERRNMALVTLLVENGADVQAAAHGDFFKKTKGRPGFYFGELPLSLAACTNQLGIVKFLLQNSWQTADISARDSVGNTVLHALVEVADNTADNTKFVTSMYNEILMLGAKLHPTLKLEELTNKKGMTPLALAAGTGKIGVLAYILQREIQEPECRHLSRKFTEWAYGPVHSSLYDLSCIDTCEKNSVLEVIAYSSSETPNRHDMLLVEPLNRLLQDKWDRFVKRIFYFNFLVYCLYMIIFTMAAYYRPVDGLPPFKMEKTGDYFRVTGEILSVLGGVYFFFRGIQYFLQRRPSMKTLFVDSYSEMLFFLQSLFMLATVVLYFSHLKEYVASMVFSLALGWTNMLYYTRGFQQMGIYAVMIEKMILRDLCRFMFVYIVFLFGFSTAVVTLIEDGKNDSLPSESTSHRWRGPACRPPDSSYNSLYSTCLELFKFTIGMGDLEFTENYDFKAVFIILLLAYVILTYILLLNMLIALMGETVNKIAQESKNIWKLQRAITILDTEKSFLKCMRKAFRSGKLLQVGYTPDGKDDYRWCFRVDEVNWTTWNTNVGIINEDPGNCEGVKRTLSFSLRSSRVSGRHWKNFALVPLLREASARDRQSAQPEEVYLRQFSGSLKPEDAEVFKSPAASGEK

| SMILES | IC50 (hVR1 [1]) | IC50 (hVR1 [2]) | Kb (hVR1 [3]) |
| --- | --- | --- | --- |
| C[C@@H](NC(=O)[C@H]1CCc2nc(C(C)(C)C(F)(F)F)ccc2C1)c1ccc2[nH]ncc2c1 [Compound 12, (S)-2-(2,2,2-Trifluoro-1,1-dimethyl-ethyl)-5,6,7,8-tetrahydro-quinoline-6-carboxylic acid [(R)-1-(1H-indazol-5-yl)-ethyl]-amide] | 0.002 µM | 6 nM | 0.000208 µM |
| CC(C)(c1ccc2c(n1)CC[C@@H](C(=O)Nc1cnc3sc(CO)nc3c1)C2)C(F)(F)F [Compound 15, (R)-2-(2,2,2-Trifluoro-1,1-dimethyl-ethyl)-5,6,7,8-tetrahydro-quinoline-6-carboxylic acid (2-hydroxymethyl-thiazolo[5,4-b]pyridin-6-yl)-amide] | 0.019 µM | 18 nM | 0.00505 µM |
| CC(NC(=O)C1CN(C)c2cc(C(F)(F)F)ccc2O1)c1ccc2[nH]ncc2c1 (mixture of isomers) [Compound 9, 4-Methyl-6-trifluoromethyl-3,4-dihydro-2H-benzo[1,4]oxazine-2-carboxylic acid [1-(1H-indazol-5-yl)ethyl]amide] | 0.042 µM | 117 nM | 0.0347 µM |
| C[C@@H](NC(=O)[C@@H]1CCc2nc(C(C)(C)C(F)(F)F)ccc2C1)c1ccc2[nH]ncc2c1 [Compound 11, (R)-2-(2,2,2-Trifluoro-1,1-dimethyl-ethyl)-5,6,7,8-tetrahydro-quinoline-6-carboxylic acid [(R)-1-(1H-indazol-5-yl)-ethyl]-amide] | 0.009 µM | 23 nM | 0.00179 µM |
| CC(NC(=O)[C@H]1COc2cc(C(C)(C)C)ccc2O1)c1ccc2[nH]ncc2c1 (single isomer, unassigned) [Compound 7] | 0.029 µM | 226 nM | 0.0161 µM |

Second part, the compound after the results:

| IC50 (hVR1 [1]) | IC50 (hVR1 [2]) | Kb (hVR1 [3]) | SMILES |
| --- | --- | --- | --- |
| 0.006 µM | 18 nM | 0.032 µM | CC(C)(c1ccc2c(n1)CC[C@@H](C(=O)Nc1cnc3c(c1)COCC3)C2)C(F)(F)F (single isomer, unassigned) [Compound 18] |
| 0.033 µM | 40 nM | 0.0229 µM | CC(C)(c1ccc2c(n1)CC[C@@H](C(=O)Nc1cnc3ccccc3c1)C2)C(F)(F)F [Compound 21, (R)-2-(2,2,2-Trifluoro-1,1-dimethyl-ethyl)-5,6,7,8-tetrahydro-quinoline-6-carboxylic acid quinolin-3-ylamide] |
| 0.009 µM | 67 nM | 0.017 µM | CC(C)(c1ccc2c(n1)CC[C@H](C(=O)Nc1cnc3c(c1)COCC3)C2)C(F)(F)F (single isomer, unassigned) [Compound 19] |

Reference: US8163901B2, “Amide derivatives as ion-channel ligands and pharmaceutical compositions and methods of using the same” (Evotec AG, priority 2008, dated 2012)
